Experimental data: article PMC6359037, “Effects of Piperazine Derivative on Paclitaxel Pharmacokinetics” (Pharmaceutics, 2019)
Like-named read-outs stand apart in the source and are kept apart here.

Columns and labels:
[1] = tested on: MCF-7/ADR cells; assay: Cytotoxicity (toxic effect) of each piperazine derivative alone, SRB assay; format: cell-based, human; conditions: 2 h incubation
Protocol: The MDR human breast cancer cell line MCF-7/ADR was maintained in RPMI 1640, supplemented with 2 mM L-glutamine, 10 mM HEPES, 24 mM NaHCO3, 10% fetal bovine serum, and 1% antibiotic-antimycotic agent at 37 °C in a humidified 5% CO2 atmosphere.
(§1) The cytotoxicity of each piperazine derivative was examined in the cells using the sulforhodamine B (SRB) assay. The changes in IC50 values of DNM, P-gp substrate anticancer drug were estimated in the presence of piperazine derivatives at a concentration of 100 μM. The details of the cytotoxicity assay were described in our previous report. […] The IC50 values were calculated with the Table Curve Windows program. The assay was performed in triplicate.

[2] = target: T1, P-gp (Homo sapiens, UniProt P08183); assay: [3H]-DNM efflux study in P-gp overexpressing cells; format: cell-based; conditions: control: tritium-labeled DNM alone, 1 h, MCF-7/ADR cells
T1 construct: uptake (A) and efflux (B) of [^3H]-DNM in MCF-7/ADR cells; endogenous in cells; host or cells: MCF-7/ADR
Protocol: Tritium-labeled P-gp substrate uptake and efflux studies were performed using the modified Harker and Sikic method. […] For the efflux study, cells were incubated with 0.05 μM tritium-labeled DNM for 1 h and subsequently in the absence or presence of 100 μM of pre-selected derivatives for another 1 h after removing 0.05 μM of the tritium-labeled DNM. The uptake and efflux values based on the radioactivity estimated by Liquid Scintillation Counting were normalized to those of 1 × 10^6 cells. The detailed procedures have been reported previously.

[3] = tested on: MCF-7/ADR cells; assay: Cytotoxicity assay (SRB): change of DNM IC50 in the presence of piperazine derivatives; format: cell-based; conditions: Homo sapiens, NCI/ADR-RES, DNM alone (negative control)
Protocol: as §1, with “The changes in IC50 values of DNM, P-gp substrate anticancer drug were estimated in the presence of piperazine derivatives at a concentration of 100 μM.” left out

[4] = target: human P-gp membrane (Homo sapiens, UniProt P08183); assay: P-glycoprotein ATPase activity assay; conditions: 100 μM
From the text: The rate of phosphate release per mg membrane protein represented the ATPase activity by converting to the relative ratio versus control value.

[5] = PTX pharmacokinetics in rats, alone or orally co-administered with compound 4; format: in vivo, Sprague-Dawley rats; conditions: for AUC(0-inf): read-out: AUCinf of PTX; for k el: read-out: ke of PTX (converted); for half-life: read-out: t1/2 of PTX (converted)
Protocol: All the animal experiments were performed using six-week-old male Sprague-Dawley rats (200–235 g) under the procedures granted by the Ewha Womans University Institutional Animal Care and Use Committee (IACUC) (No. 2012-01-019), Korea.
PTX at 2 mg/mL was prepared immediately prior to use with a commercial formulation of Taxol® (Cremophor® EL, anhydrous ethanol and isotonic saline (1:1:4, v/v/v)). Compound 4 (N-(4-(4-bromophenyl)thiazol-2-yl)-2-(N-(2-(4-((4-chlorophenyl)(phenyl)methyl)piperazin-1-yl)-2-oxoethyl)acetamido)acetamide) was prepared using a process similar to PTX formulation for oral administration.
For intravenous injection of 2 mg/kg of PTX (IV) and oral administration of 25 mg/kg of PTX (PO) with 0, 2, or 5 mg/kg of compound 4, the rats were divided into 4 groups on the day. The common carotid artery was catheterized for blood sampling. Blood sampling was conducted at 0, 0.033, 0.083, 0.25, 0.5, 1, 2, 3, 4, 6, 10, and 24 h for the IV group and 0, 0.25, 0.5, 1, 2, 3, 4, 6, 8, 10, and 24 h for PO groups.
Prepared plasma samples mixed with internal standard (4-hydroxybenzoic acid n-hexyl ester) were analyzed by the HPLC system.
WinNonlin® Professional version 5.2 software (Pharsight Corporation, Mountain View, CA, USA) was used to estimate the PK parameters following intravenous or oral PTX administrations to the rats. Non-compartmental analysis was performed using the plasma PTX concentration–time profiles to obtain the following PK parameters: Area under the plasma concentration–time curve from zero time to infinity (AUCinf), elimination half-life (t1/2), apparent volume of distribution after oral administration (Vz/F), and oral clearance (Cl/F). The maximum plasma concentration (Cmax) and the time required to reach Cmax (Tmax) were directly measured from the plasma PTX concentration–time curve. The absolute BA and relative BA (AB and RB, respectively) of PTX were calculated using the respective formulas below:AB (%) = AUC po/AUC iv × IV dose/PO dose × 100 RB (%) = AUC po co–administration/AUC po control × 100

[6] = parameters: method as in doi:10.1016/S0378-5173(98)00188-4; conditions: cited from earlier work
[7] = tested on: P-glycoprotein (P-gp); parameters: method as in PMID 12608532; conditions: cited from earlier work
[8] = tested on: MES-SA/Dx5; parameters: method as in PMID 19275716; conditions: xenograft mice with MES-SA/Dx5 (P-gp overexpressed) vs parental cells; cited from earlier work
[9] = PTX 25 mg/kg PO alone (oral control)
[10] = male, Sprague-Dawley, rat, plasma, PTX 2 mg/kg IV (IV control)
[11] = male, Sprague-Dawley, rat, plasma, PTX 25 mg/kg PO alone (oral control)

Chain of human P-gp membrane (P08183 whole entry): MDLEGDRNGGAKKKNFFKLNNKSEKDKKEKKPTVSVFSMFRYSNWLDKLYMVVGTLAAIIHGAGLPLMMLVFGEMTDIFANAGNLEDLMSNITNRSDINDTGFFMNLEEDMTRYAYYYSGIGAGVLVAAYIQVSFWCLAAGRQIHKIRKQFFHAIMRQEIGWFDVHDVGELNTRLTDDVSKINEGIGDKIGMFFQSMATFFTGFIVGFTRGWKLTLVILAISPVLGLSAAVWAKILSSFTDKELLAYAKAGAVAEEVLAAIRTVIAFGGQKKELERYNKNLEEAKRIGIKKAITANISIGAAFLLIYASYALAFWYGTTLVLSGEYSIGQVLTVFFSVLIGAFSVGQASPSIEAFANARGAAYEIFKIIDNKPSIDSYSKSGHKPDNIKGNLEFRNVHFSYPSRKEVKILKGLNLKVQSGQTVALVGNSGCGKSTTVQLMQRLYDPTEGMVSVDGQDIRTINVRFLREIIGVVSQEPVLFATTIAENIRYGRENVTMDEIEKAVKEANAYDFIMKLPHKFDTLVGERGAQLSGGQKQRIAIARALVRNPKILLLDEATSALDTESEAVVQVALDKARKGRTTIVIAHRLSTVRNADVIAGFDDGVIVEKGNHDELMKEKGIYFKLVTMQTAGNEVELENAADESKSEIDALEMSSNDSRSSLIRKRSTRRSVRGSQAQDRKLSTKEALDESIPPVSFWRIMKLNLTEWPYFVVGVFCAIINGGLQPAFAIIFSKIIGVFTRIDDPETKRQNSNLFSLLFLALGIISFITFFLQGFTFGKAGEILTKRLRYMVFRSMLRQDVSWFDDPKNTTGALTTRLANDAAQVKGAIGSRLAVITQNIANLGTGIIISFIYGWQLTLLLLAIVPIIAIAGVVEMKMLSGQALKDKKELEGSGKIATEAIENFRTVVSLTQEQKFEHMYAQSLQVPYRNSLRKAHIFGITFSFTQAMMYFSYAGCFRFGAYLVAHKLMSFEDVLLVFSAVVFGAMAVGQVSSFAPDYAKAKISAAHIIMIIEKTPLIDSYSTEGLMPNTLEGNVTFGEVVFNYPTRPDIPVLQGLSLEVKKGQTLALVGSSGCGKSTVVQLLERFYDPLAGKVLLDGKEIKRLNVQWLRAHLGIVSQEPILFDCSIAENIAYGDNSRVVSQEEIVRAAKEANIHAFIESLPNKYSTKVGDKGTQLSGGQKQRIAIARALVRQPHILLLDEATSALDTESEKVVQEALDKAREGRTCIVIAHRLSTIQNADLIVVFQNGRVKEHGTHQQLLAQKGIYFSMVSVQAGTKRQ
T1 sequence (P08183 whole entry): as above

Row | SMILES | cell survival ratio ([1]; 5 μM) | cell survival ratio ([1]; 10 μM) | cell survival ratio ([1]; 25 μM) | cell survival ratio ([1]; 50 μM) | cell survival ratio ([1]; 100 μM) | also measured
1 | CC(C)(C)c1cc(NC(=O)CN(CC(=O)N2CCN(C(c3ccccc3)c3ccc(Cl)cc3)CC2)C(=O)c2ccccc2)no1 (stereo not shown) [Compound 6] | 100.72 | 101.38 | 100.76 | 85.68 | 82.91 | 
2 | COc1ccc(CNC(=O)CN(CC(=O)N2CCN(C(c3ccccc3)c3ccc(Cl)cc3)CC2)C(=O)c2ccccc2)cc1 (stereo not shown) [Compound 5] | 101.71 | 87.22 | 83.46 | 83.84 | 81.94 | 
3 | COc1cccc2c1C(=O)c1c(O)c3c(c(O)c1C2=O)C[C@@](O)(C(C)=O)C[C@@H]3O[C@H]1C[C@H](N)[C@H](O)[C@H](C)O1 [DNM, Daunomycin] |  |  |  |  |  | [3H]-DNM efflux [2]: 63.0 ± 3.3%; IC50 [3]: 31.7 µM
4 | O=C(CN(CC(=O)N1CCN(C(c2ccccc2)c2ccc(Cl)cc2)CC1)C(=O)Cc1ccccc1)Nc1nc(-c2ccc(Cl)cc2)cs1 (stereo not shown) [Compound 2] | 102.70 | 102.87 | 86.94 | 86.10 | 87.75 | P-gp ATPase activity compared to the control [4]: 1.3 fold; P-gp ATPase activity, ratio of the control (blank) [4]: 1.29
5 | CC(=O)O[C@H]1C(=O)[C@@]2(C)[C@H]([C@H](OC(=O)c3ccccc3)[C@]3(O)C[C@H](OC(=O)[C@H](O)[C@@H](NC(=O)c4ccccc4)c4ccccc4)C(C)=C1C3(C)C)[C@]1(OC(C)=O)CO[C@@H]1C[C@@H]2O [PTX, Paclitaxel] |  |  |  |  |  | AB (absolute BA) of PTX ([5]; PTX 2 mg/kg IV (IV control)): 100.0%; Cl/F of PTX ([5]; PTX 2 mg/kg IV (IV control)): 614 ± 123 mL/h; Vz/F of PTX ([5]; PTX 2 mg/kg IV (IV control)): 1754 ± 419 mL; AB (absolute BA) of PTX [5, 9]: 7.1%; Cl/F of PTX [5, 9]: 8721 ± 2040 mL/h; Cmax [5, 10]: 2970 ± 428 ng/mL; AUC(0-inf) [5, 10]: 835 ± 155 ng·h/mL; k el [5, 10]: 0.000103 s⁻¹; half-life [5, 10]: 2.06 ± 0.8 h; Cmax [5, 11]: 189 ± 76 ng/mL; Tmax [5, 11]: 2 h; AUC(0-inf) [5, 11]: 745 ± 208 ng·h/mL; Vd/F ([5]; male, Sprague-Dawley, rat, plasma, PTX 25 mg/kg PO alone (oral control), read-out: Vz/F of PTX): 40.6 L; k el [5, 11]: 6.47e-05 s⁻¹; half-life [5, 11]: 3.1 ± 0.8 h; bioavailability of PTX [6]: below 10%; share of orally administered PTX excluded from the GI track by P-gp [7]: approximately 50%
6 | O=C(C(c1ccccc1)c1ccc([125I])cc1)N1CCN(CC(O)COc2cccc3ncccc23)CC1 (stereo not shown) [radio-iodinated piperazine derivative, 5-[3-{4-(2-phenyl-2-(4-[125I]iodo-phenyl)acetyl)piperazin-1-yl}-2-hydroxypropoxy] quinoline] |  |  |  |  |  | shortening of absorption half-life [8]: ~10 fold; shortening of mean residence time [8]: 50%
7 | CC(=O)N(CC(=O)Nc1nc(-c2ccc(Br)cc2)cs1)CC(=O)N1CCN(C(c2ccccc2)c2ccc(Cl)cc2)CC1 (stereo not shown) [Compound 4, N-(4-(4-bromophenyl)thiazol-2-yl)-2-(N-(2-(4-((4-chlorophenyl)(phenyl)methyl)piperazin-1-yl)-2-oxoethyl)acetamido)acetamide] | 100.76 | 98.50 | 96.14 | 96.90 | 87.63 | P-gp ATPase activity compared to the control [4]: 1.2 fold; P-gp ATPase activity, ratio of the control (blank) [4]: 1.18
8 | O=C(CN(CC(=O)N1CCN(C(c2ccccc2)c2ccc(Cl)cc2)CC1)C(=O)c1ccc2ccccc2c1)NCc1ccccc1 (stereo not shown) [Compound 1] | 89.77 | 90.47 | 89.23 | 88.56 | 87.21 | 
9 | O=C(CN(CC(=O)N1CCN(C(c2ccccc2)c2ccc(Cl)cc2)CC1)C(=O)c1ccc2ccccc2c1)Nc1nc(-c2ccc(Cl)cc2)cs1 (stereo not shown) [Compound 3] | 102.03 | 101.69 | 102.24 | 86.26 | 85.90 | 
